We go through 31 molecules from US12503436B2, “Compounds and compositions for treating conditions associated with STING activity” (NOVARTIS PHARMA AG, priority 2021, dated 2025).

For the experiment, the target named is STING (Homo sapiens, UniProt Q86WV6, G230A/H232R/R293Q/R71H). As to the kind of experiment: STING reporter assay in THP1-Dual KO-IFNAR2 cells (2′3′cGAMP stimulation, luciferase reporter). The experiment is classed as cell-based. The settings on record: 15 μM 2′3′cGAMP stimulation, 24 h, read-out: Pharmaron, THP1_IFNAR2 STING 24 h Luci Normalized: GeoMean EC50. Here is the method: STING pathway activation by the compounds described herein was measured using THP1-Dual™ cells (KO-IFNAR2).
THP1-Dual™ KO-IFNAR2 Cells (obtained from InvivoGen) were maintained in RPMI, 10% FCS, 5 ml P/S, 2 mM L-glut, 10 mM Hepes, and 1 mM sodium pyruvate. Compounds were spotted in empty 384 well tissue culture plates (Greiner 781182) by Echo for a final concentration of 0.0017-100 μM. Cells were plated into the TC plates at 40 μL per well, 2×10E6 cells/mL. For activation with STING ligand, 2′3′cGAMP (MW 718.38, obtained from Invivogen), was prepared in Optimem media.
The following solutions were prepared for each 1×384 plate: • Solution A: 2 mL Optimem with one of the following stimuli: • 60 μL of 10 mM 2′3′cGAMP→150 μM stock • Solution B: 2 mL Optimem with 60 μL Lipofectamine 2000→Incubate 5 min at RT
2 mL of solution A and 2 ml Solution B was mixed and incubated for 20 min at room temperature (RT). 20 μL of transfection solution (A+B) was added on top of the plated cells, with a final 2′3′cGAMP concentration of 15 μM. The plates were then centrifuged immediately at 340 g for 1 minute, after which they were incubated at 37° C., 5% CO2, >98% humidity for 24 h. Luciferase reporter activity was then measured. EC50 values were calculated by using standard methods known in the art.
Luciferase reporter assay: 10 μL of supernatant from the assay was transferred to white 384-plate with flat bottom and squared wells. One pouch of QUANTI-Luc™ Plus was dissolved in 25 mL of water. 100 μL of QLC Stabilizer per 25 mL of QUANTI-Luc™ Plus solution was added. 50 μL of QUANTI-Luc™ Plus/QLC solution per well was then added. Luminescence was measured on a Platereader (e.g., Spectramax I3X (Molecular Devices GF3637001)).
Luciferase reporter activity was then measured. EC50 values were calculated by using standard methods known in the art.
(In general: A reporter such as luciferase makes a cellular process visible.)

Sequence of STING (Q86WV6 whole entry R71H/G230A/H232R/R293Q): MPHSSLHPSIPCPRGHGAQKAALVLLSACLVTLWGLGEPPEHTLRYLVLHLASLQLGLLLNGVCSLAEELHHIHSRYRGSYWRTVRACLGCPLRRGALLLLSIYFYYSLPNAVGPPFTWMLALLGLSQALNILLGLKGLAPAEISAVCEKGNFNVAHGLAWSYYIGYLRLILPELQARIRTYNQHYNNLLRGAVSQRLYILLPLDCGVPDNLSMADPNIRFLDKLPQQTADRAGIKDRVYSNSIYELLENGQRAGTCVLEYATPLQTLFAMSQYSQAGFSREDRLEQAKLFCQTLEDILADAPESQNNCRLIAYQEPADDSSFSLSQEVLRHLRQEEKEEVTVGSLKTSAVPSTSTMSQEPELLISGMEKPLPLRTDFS

What is called EC50 is the concentration giving half of the maximal effect. With `O=C(CC(O)C(F)(F)F)Nc1c[nH]c2ccc(OCC[C@@H]3C[C@@H]4CN(CC(F)(F)F)C[C@@H]4C3)cc12` (stereo partly drawn) [Compound 433, 4,4,4-trifluoro-3-hydroxy-N-(5-(2-((3aR,5r,6aS)-2-(2,2,2-trifluoroethyl)octahydrocyclopenta[c]pyrrol-5-yl)ethoxy)-1H-indol-3-yl)butanamide], the EC50 is 0.2 to 1 µM.
To `O=C(Nc1c[nH]c2ccc(OCc3ccc(C(F)(F)F)cc3)cc12)C1CC(Cl)C1` (stereo not shown) [Compound 322, 3-chloro-N-(5-((4-(trifluoromethyl)benzyl)oxy)-1H-indol-3-yl)cyclobutane-1-carboxamide] belongs 0.2 to 1 µM; to `CCC(=O)Nc1c[nH]c2ccc(OCc3ccc(C(F)(F)F)cc3)cc12` [Compound 138, N-(5-((4-(trifluoromethyl)benzyl)oxy)-1H-indol-3-yl)propionamide], 0.2 to 1 µM; to `O=C(Nc1c[nH]c2ccc(OCc3ccc(C(F)(F)F)cc3)cc12)C1CC(O)C1` (stereo not shown) [Compound 329, 3-hydroxy-N-(5-((4-(trifluoromethyl)benzyl)oxy)-1H-indol-3-yl)cyclobutane-1-carboxamide], 0.2 to 1 µM.
On to `CC(=O)Nc1c[nH]c2ccc(OCCC34CC(C3)C4)cc12` [Compound 458, N-(5-(2-(bicyclo[1.1.1]pentan-1-yl)ethoxy)-1H-indol-3-yl)acetamide], for which the concentration for a half-maximal effect (EC50) lay in the range of 1 to 5 µM.
With `CC1(C(=O)Nc2c[nH]c3ccc(O[C@H]4C[C@H](c5ccc(C(F)(F)F)cc5)C4)cc23)CN(CC(F)F)C1` [Compound 483, 1-(2,2-difluoroethyl)-3-methyl-N-(5-(trans-3-(4-(trifluoromethyl)phenyl)cyclobutoxy)-1H-indol-3-yl)azetidine-3-carboxamide], the EC50 fell in the range of 0.04 to 0.2 µM.
In the case of `CC(=O)Nc1c[nH]c2ccc(O[C@@H]3C[C@@H](c4ccc(C(F)(F)F)cc4)[C@@H]3C)cc12` [Compound 448, N-(5-((1R,2S,3R)-2-methyl-3-(4-(trifluoromethyl)phenyl)cyclobutoxy)-1H-indol-3-yl)acetamide], the EC50 lay within 0.04 to 0.2 µM.
As for `CC(=O)Nc1c[nH]c2ccc(OCCC3CCN(c4ccc(C(F)(F)F)cn4)CC3)cc12` [Compound 257, N-(5-(2-(1-(5-(trifluoromethyl)pyridin-2-yl)piperidin-4-yl)ethoxy)-1H-indol-3-yl)acetamide], the 50% effective concentration (EC50) was in the range of 0.2 to 1 µM.
To `CC1(C(=O)Nc2c[nH]c3ccc(O[C@H]4C[C@@H](c5ccc(C(F)(F)F)cc5)C4)cc23)CCOCC1` [Compound 363, 4-methyl-N-(5-(cis-3-(4-(trifluoromethyl)phenyl)cyclobutoxy)-1H-indol-3-yl)tetrahydro-2H-pyran-4-carboxamide] belongs 0.2 to 1 µM; to `CC(=O)Nc1c[nH]c2ccc(CCOc3ccc(CC(F)(F)F)cc3)cc12` [Compound 442, N-(5-{2-[4-(2,2,2-trifluoroethyl)phenoxy]ethyl}-1H-indol-3-yl)acetamide], 0.04 to 0.2 µM; to `N#CC1CCC1C(=O)Nc1c[nH]c2ccc(OCc3ccc(C(F)(F)F)cc3)cc12` (stereo not shown) [Compound 351, 2-cyano-N-(5-((4-(trifluoromethyl)benzyl)oxy)-1H-indol-3-yl)cyclobutane-1-carboxamide], 0.2 to 1 µM.
For `COC1CC(C(=O)Nc2c[nH]c3ccc(OCC[C@@H]4C[C@@H]5CN(CC(F)(F)F)C[C@@H]5C4)cc23)C1` (stereo partly drawn) [Compound 345, 3-methoxy-N-(5-(2-((3aR,5r,6aS)-2-(2,2,2-trifluoroethyl)octahydrocyclopenta[c]pyrrol-5-yl)ethoxy)-1H-indol-3-yl)cyclobutane-1-carboxamide], the EC50 lay within 0.2 to 1 µM.
For `CC(=O)Nc1c[nH]c2c(F)cc(COCc3ccc(C(F)(F)F)cc3)cc12` [Compound 276, N-(7-fluoro-5-(((4-(trifluoromethyl)benzyl)oxy)methyl)-1H-indol-3-yl)acetamide], the concentration for a half-maximal effect (EC50) is 1 to 5 µM.
To `CC(=O)Nc1c[nH]c2ccc(CCOc3cccc(C(C)N(C)C)c3)cc12` (stereo not shown) [Compound 536, N-(5-(2-(3-(1-(dimethylamino)ethyl)phenoxy)ethyl)-1H-indol-3-yl)acetamide] belongs 5 to 100 µM; to `O=C(Nc1c[nH]c2ccc(CCOc3ccc(C(F)(F)F)cc3)cc12)C1CCC1` [Compound 145, N-(5-(2-(4-(trifluoromethyl)phenoxy)ethyl)-1H-indol-3-yl)cyclobutanecarboxamide], 0.2 to 1 µM.
On to `CC(=O)Nc1c[nH]c2ccc(CCOc3ccc(OC(F)(F)F)nc3)cc12` [Compound 471, N-[5-(2-{[6-(trifluoromethoxy)pyridin-3-yl]oxy}ethyl)-1H-indol-3-yl]acetamide], for which the EC50 lay in the range of 0.2 to 1 µM.
To `CC(Cc1ccc(C(F)(F)F)cc1)Cc1ccc2[nH]cc(NC(=O)C3CCC3)c2c1` (stereo not shown) [Compound 137, N-(5-(2-methyl-3-(4-(trifluoromethyl)phenyl)propyl)-1H-indol-3-yl)cyclobutanecarboxamide] belongs 1 to 5 µM; to `CC(=O)Nc1c[nH]c2ccc(CCOc3cnc4ccc(OC(F)(F)F)cc4c3)cc12` [Compound 480, N-[5-(2-{[6-(trifluoromethoxy)quinolin-3-yl]oxy}ethyl)-1H-indol-3-yl]acetamide], 0.2 to 1 µM.
To `CC(=O)Nc1c[nH]c2ccc(CCOc3ccc(Cl)cc3)cc12` [Compound 229, N-(5-(2-(4-chlorophenoxy)ethyl)-1H-indol-3-yl)acetamide] belongs 0.2 to 1 µM; to `CC1(C(=O)Nc2c[nH]c3ccc(O[C@H]4C[C@@H](c5ccc(C(F)(F)F)cc5)C4)cc23)CCNCC1` [Compound 529, 4-methyl-N-(5-(cis-3-(4-(trifluoromethyl)phenyl)cyclobutoxy)-1H-indol-3-yl)piperidine-4-carboxamide], 5 to 100 µM.
With `O=C(Nc1c[nH]c2ccc(CCOc3ccc(C(F)(F)F)cc3)cc12)C1CC1` [Compound 592, N-(5-(2-(4-(trifluoromethyl)phenoxy)ethyl)-1H-indol-3-yl)cyclopropanecarboxamide] the figure was 0.2 to 1 µM; with `C[C@]1(C(=O)Nc2c[nH]c3ccc(OCc4ccc(C(F)(F)F)cc4)cc23)CC[C@@H](O)CC1` [Compound 419, trans-4-hydroxy-1-methyl-N-(5-((4-(trifluoromethyl)benzyl)oxy)-1H-indol-3-yl)cyclohexane-1-carboxamide], 0.2 to 1 µM.
Regarding `CC1(C(=O)Nc2c[nH]c3ccc(CCOc4ccc(C(F)(F)F)cc4)cc23)CCOC1` (stereo not shown) [Compound 178, 3-methyl-N-(5-(2-(4-(trifluoromethyl)phenoxy)ethyl)-1H-indol-3-yl)tetrahydrofuran-3-carboxamide], the concentration giving a half-maximal response (EC50) fell in the range of 0.2 to 1 µM.
For the molecule `CC(=O)Nc1c[nH]c2ccc(OCCc3ccc(C(F)(F)F)cc3)cc12` [Compound 136, N-(5-(4-(trifluoromethyl)phenethoxy)-1H-indol-3-yl)acetamide], the EC50 was 0.04 to 0.2 µM.
For the molecule `O=C(Nc1c[nH]c2ccc(/C=C/c3ccc(C(F)(F)F)cc3)cc12)C1CCC1` [Compound 144, (E)-N-(5-(4-(trifluoromethyl)styryl)-1H-indol-3-yl)cyclobutanecarboxamide], the concentration for a half-maximal effect (EC50) was 5 to 100 µM.
As to `CC(=O)Nc1c[nH]c2ccc(CCOc3ccc(Cl)c(Cl)c3)cc12` [Compound 214, N-(5-(2-(3,4-dichlorophenoxy)ethyl)-1H-indol-3-yl)acetamide], the EC50 lay within 0.2 to 1 µM.
On to `CN1CC(C(=O)Nc2c[nH]c3ccc(OCCc4ccc(C(F)(F)F)cc4)cc23)C1` [Compound 311, 1-methyl-N-(5-(4-(trifluoromethyl)phenethoxy)-1H-indol-3-yl)azetidine-3-carboxamide], for which the EC50 is 1 to 5 µM.
With `CC1(C(=O)Nc2c[nH]c3ccc(OCC[C@@H]4C[C@@H]5CN(CC(F)(F)F)C[C@@H]5C4)cc23)CC1` [Compound 379, 1-methyl-N-(5-(2-((3aR,5r,6aS)-2-(2,2,2-trifluoroethyl)octahydrocyclopenta[c]pyrrol-5-yl)ethoxy)-1H-indol-3-yl)cyclopropane-1-carboxamide], the EC50 lay in the range of 0.2 to 1 µM.
In the case of `CC1OC(C)C1C(=O)Nc1c[nH]c2ccc(OCc3ccc(C(F)(F)F)cc3)cc12` (stereo not shown) [Compound 428, 2,4-dimethyl-N-(5-((4-(trifluoromethyl)benzyl)oxy)-1H-indol-3-yl)oxetane-3-carboxamide], the half-maximal effective concentration (EC50) was in the range of 0.2 to 1 µM.
With `CN1CC(C(=O)Nc2c[nH]c3ccc(OCC[C@@H]4C[C@@H]5CN(CC(F)(F)F)C[C@@H]5C4)cc23)C1` [Compound 303, 1-methyl-N-(5-(2-((3aR,5r,6aS)-2-(2,2,2-trifluoroethyl)octahydrocyclopenta[c]pyrrol-5-yl)ethoxy)-1H-indol-3-yl)azetidine-3-carboxamide] the figure was 5 to 100 µM.
As for `CC(=O)Nc1c[nH]c2ccc(OCCC3CCN(CC(F)(F)F)CC3)cc12` [Compound 122, N-(5-(2-(1-(2,2,2-trifluoroethyl)piperidin-4-yl)ethoxy)-1H-indol-3-yl)acetamide], the concentration giving a half-maximal response (EC50) lay in the range of 0.2 to 1 µM.
